The term melting point denotes the temperature of the solid-liquid transition.

This note sets out measurements from US20060111445A1, “Novel carboxylic acids and derivatives for the treatment of and preventing diabetes and dyslipidaemia” (priority 2003, published 2006).

Series [1] concerns the target T1, chimeric protein PPARα-Gal4 (Homo sapiens, UniProt Q07869).
T1 construct: Gal4 (fusion partner); expressed in transfected cells; host or cells: CV-1 cells (monkey kidney cells)
T1 sequence (Q07869 239-466 limits assumed): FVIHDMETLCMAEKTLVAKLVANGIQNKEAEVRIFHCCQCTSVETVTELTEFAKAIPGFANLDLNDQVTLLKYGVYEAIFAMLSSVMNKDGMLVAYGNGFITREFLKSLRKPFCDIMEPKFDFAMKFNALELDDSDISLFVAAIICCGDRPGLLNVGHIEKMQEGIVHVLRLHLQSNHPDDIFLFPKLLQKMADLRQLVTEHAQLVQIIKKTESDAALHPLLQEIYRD
Nature of the series: PPAR activation, Gal4 chimera luciferase reporter in co-transfected CV-1 cells. Type of series: cell-based. The conditions noted are these: 50 μM, 18 hours contact, relative to control cells without product. The method, then:
(§1) The measurement of the PPAR activation was performed according to a technique described by Lehmann et al. (1995, J. Biol. Chem. 270: 12953-12956).
(§2) CV-1 cells (monkey kidney cells) are co-transfected with an expression vector for the chimeric proteins PPARα-Gal4 or PPARγ-Gal4 and with a “reporter” plasmid that allows the expression of the luciferase gene placed under the control of a promoter containing Gal4 response elements.
(§3) The cells are plated into 96-well microplates and co-transfected using a commercial reagent with the reporter plasmid (pG5-tk-pGL3) and the expression vector for the chimeric protein (PPARα-Gal4 or PPARγ-Gal4). After incubating for 4 hours, whole culture medium (comprising 10% foetal calf serum) is added to the wells. After 24 hours, the medium is removed and replaced with whole medium comprising the test products (50 μM final). The products are left in contact with the cells for 18 hours. The cells are then lysed and the luciferase activity is measured using a luminometer. A PPAR activation factor can then be calculated by means of the activation of the expression of the reporter gene induced by the product (relative to the control cells that have not received any product).
On the technique in general: A reporter such as luciferase makes a cellular process visible.

In series [2] the target is T2, chimeric protein PPARγ-Gal4 (Homo sapiens, UniProt P37231).
T2 construct: Gal4 (fusion partner); expressed in transfected cells; host or cells: CV-1 cells (monkey kidney cells)
T2 sequence (P37231 238-503 limits assumed): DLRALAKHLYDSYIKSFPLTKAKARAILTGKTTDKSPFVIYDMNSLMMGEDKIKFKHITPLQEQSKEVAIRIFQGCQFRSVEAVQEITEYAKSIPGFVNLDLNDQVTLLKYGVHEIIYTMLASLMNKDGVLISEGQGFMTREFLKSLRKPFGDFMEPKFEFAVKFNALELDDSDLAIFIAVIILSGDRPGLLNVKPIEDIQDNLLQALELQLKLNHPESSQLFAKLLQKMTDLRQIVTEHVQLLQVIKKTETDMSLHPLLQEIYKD
Described as above. Type of series: cell-based. The conditions noted are these: 50 μM, 18 hours contact, relative to control cells without product. The method, then: as §1, §2, §3

Series [3] deals with vector expressing Gal4 alone. Nature of the series: Luciferase reporter control without the PPAR ligand binding domain in CV-1 cells. It is filed as cell-based. The method, then: as §2
as §3, with “The products are left in contact with the cells for 18 hours.” left out
By way of example, the compound of Example 1, at a concentration of 50 μM, activates the chimeric protein PPARα-Gal4 by factor of 18, and the chimeric protein PPARγ-Gal4 by a factor of 39. In the absence of the binding domain for the PPAR α or γ ligand (vector expressing Gal4 alone), the luciferase activity measured in the presence of this product is zero.

Consider `CCCCCCc1cc2c(cc1NCC(=O)O)C(=O)CC2` [Example 36, (6-Hexyl-3-oxoindan-5-ylamino)acetic acid], for which the melting point is 110 °C.
Same read-out and setting: then `CCCCCCc1cc2c(cc1SCCCC(=O)O)C(=O)CC2` [Example 42, 4-(6-hexyl-3-oxoindan-5-ylsulfanyl)butyric acid], with 100 °C.
In the case of `CCCCCCc1cc2c(cc1OCCCC(=O)O)C(=O)CC2` [Example 1, 4-(6-hexyl-3-oxoindan-5-yloxy)butyric acid], the “PPAR activation factor (activation of the chimeric protein PPARα-Gal4)” value in series [1] is on record as 18. Also, the “PPAR activation factor (activation of the chimeric protein PPARγ-Gal4)” value in series [2] is 39. For the same compound, the “luciferase activity in the absence of the binding domain for the PPAR α or γ ligand” value in series [3] is listed as “zero”.
Consider `CCCCCCc1cc2c(cc1OCCCC(=O)O)C(=NO)CC2` [Example 24, 4-(6-hexyl-3-(hydroxyimino)-5-indanyloxy]butyric acid], for which the melting point stood at 148 °C.
Still for that read-out and setting: with `CCCCCCc1cc2c(cc1NCC(=O)O)C(=O)CC2` [Example 38, (6-Hexyl-3-oxoindan-5-ylamino)acetic acid] the figure was 144 °C.
